Results: patent US9790202B2, “Anthranilamide derivatives as pesticides” (priority 2010, dated 2017)
Like-named read-outs stand apart in the source and are kept apart here.

Tests used:
[1] = log P determination by HPLC on reversed-phase columns (C 18), acidic range; assay type: physicochemical
Protocol: The log P values reported in the table above and in the Preparation Examples were determined in accordance with EEC Directive 79/831 Annex V.A8 by HPLC (High Performance Liquid Chromatography) on reversed-phase columns (C 18), with the following methods:
The LC-MS determination in the acidic range is effected at pH 2.7 using 0.1% aqueous formic acid and acetonitrile (contains 0.1% formic acid) as eluents, linear gradient from 10% acetonitrile to 95% acetonitrile
The calibration was effected with unbranched alkan-2-ones (having 3 to 16 carbon atoms) with known log P values (log P values determined on the basis of the retention times by linear interpolation between two successive alkanones).

[2] = test system: green peach aphid (Myzus persicae); experiment: Myzus test (MYZUPE spray treatment); assay type: in vivo; conditions: foliar, 144 h, read-out: efficacy in % (aphids killed)
Protocol: Myzus Test (MYZUPE Spray Treatment)
Solvent: 78 parts by weight of acetone 1.5 parts by weight of dimethylformamide
(§1) Emulsifier: 0.5 part by weight of alkylaryl polyglycol ether
(§2) To produce an appropriate active ingredient formulation, 1 part by weight of active ingredient is mixed with the stated amounts of solvent and emulsifier, and the concentrate is diluted with emulsifier-containing water to the desired concentration.
Leaf discs of Chinese cabbage (Brassica pekinensis) infested by all stages of the green peach aphid (Myzus persicae) are sprayed with an active ingredient formulation of the desired concentration.
After 6 days, the efficacy in % is determined 100% means that all aphids have been killed; 0% means that no aphids have been killed.

[3] = test system: larvae of the mustard beetle (Phaedon cochleariae); experiment: Phaedon test (PHAECO spray treatment), Use Example 2; assay type: in vivo; conditions: foliar, 168 h, read-out: efficacy in % (beetle larvae killed)
Protocol: Phaedon Test (PHAECO Spray Treatment)
(§3) Solvent: 78.0 parts by weight of acetone 1.5 parts by weight of dimethylformamide
as §1, §2
Leaf discs of Chinese cabbage (Brassica pekinensis) are sprayed with an active ingredient formulation of the desired concentration and, after drying, populated with larvae of the mustard beetle (Phaedon cochleariae).
After 7 days, the efficacy in % is determined 100% means that all beetle larvae have been killed; 0% means that no beetle larvae have been killed.

[4] = test system: caterpillars of the armyworm (Spodoptera frugiperda); experiment: Spodoptera frugiperda test (SPODFR spray treatment); assay type: in vivo; conditions: Spodoptera frugiperda, foliar, 168 h, read-out: efficacy in % (caterpillars killed)
Protocol: Spodoptera frugiperda Test (SPODFR Spray Treatment)
as §3, §1, §2
Leaf discs of maize (Zea mays) are sprayed with an active ingredient formulation of the desired concentration and, after drying, populated with caterpillars of the armyworm (Spodoptera frugiperda).
After 7 days, the efficacy in % is determined 100% means that all caterpillars have been killed; 0% means that no caterpillars have been killed.

[5] = reversed-phase C18 HPLC column, pH 2.7, HPLC reversed-phase C 18, pH 2.7, 0.1% aqueous formic acid / acetonitrile, read-out: LOGP (HCOOH)
[6] = 100 g/ha, spray on Chinese cabbage leaf discs, after 6 days
[7] = 100 g/ha, spray on Chinese cabbage leaf discs, after 7 days
[8] = 100 g/ha, spray on maize leaf discs, after 7 days

Compound `CNC(=O)c1cc(C(N)=S)cc(C)c1NC(=O)c1cc(Cn2nnc(C(F)(F)F)n2)nn1-c1ccccc1Cl` [Compound 24] has a chromatographic logP [1, 5] of 2.65, a pest or weed control at 100 g/ha [2, 6] of 90% and a pest or weed control at 100 g/ha [3, 7] of 100%. It also gave a pest or weed control at 100 g/ha [4, 8] of 100%.
In the case of `CNC(=O)c1cc(C(N)=S)cc(C)c1NC(=O)c1cc(Cn2nnc(C(F)(F)C(F)(F)F)n2)nn1-c1ncccc1Cl` [Compound 25], the chromatographic logP ([1]; pH 2.7, LOGP (HCOOH)) is reported as 2.64, the pest or weed control at 100 g/ha ([2]; in Brassica rapa) is reported as 100% and the pest or weed control at 100 g/ha ([3]; in Brassica rapa) is reported as 100%. The pest or weed control at 100 g/ha ([4]; in Zea mays) was 100%.
`Cc1cc(C(N)=S)cc(C(=O)NC(C)(C)C)c1NC(=O)c1cc(Cn2nnc(C(F)(F)C(F)(F)F)n2)nn1-c1ncccc1Cl` [Compound 26] gave a chromatographic logP ([1]; pH 2.7, LOGP (HCOOH)) of 3.26, a pest or weed control at 100 g/ha ([2]; in Brassica rapa) of 100% and a pest or weed control at 100 g/ha ([3]; in Brassica rapa) of 100%. The pest or weed control at 100 g/ha ([4]; in Zea mays) was 100%.
In the case of `COC(=O)c1cc(C)c(NC(=O)c2cc(Cn3nnc(C(F)(F)C(F)(F)F)n3)nn2-c2ncccc2Cl)c(C(=O)NC(C)(C)C)c1` [Compound 27], the chromatographic logP [1, 5] is reported as 3.85, the pest or weed control at 100 g/ha [2, 6] is reported as 90% and the pest or weed control at 100 g/ha [3, 7] is reported as 100%. The pest or weed control at 100 g/ha [4, 8] was 100%.
`Cc1cc(C(=O)OCC2CC2)cc(C(=O)NC(C)(C)C)c1NC(=O)c1cc(Cn2nnc(C(F)(F)C(F)(F)F)n2)nn1-c1ncccc1Cl` [Compound 28] gave a chromatographic logP [1, 5] of 4.54 and a pest or weed control at 100 g/ha [4, 8] of 100%.
With `Cc1cc(C(=O)OCC2CCC2)cc(C(=O)NC(C)(C)C)c1NC(=O)c1cc(Cn2nnc(C(F)(F)F)n2)nn1-c1ncccc1Cl` [Compound 29] the chromatographic logP [1, 5] was 4.62 and the pest or weed control at 100 g/ha [4, 8] was 100%.
For `CNC(=O)c1cc(C(=O)OC)cc(C)c1NC(=O)c1cc(Cn2nnc(C(F)(F)F)n2)nn1-c1ccccc1Cl` [Compound 30], the chromatographic logP [1, 5] was 3.28 and the pest or weed control at 100 g/ha [4, 8] was 100%.
`Cc1cc(C(=O)OC2CCC2)cc(C(=O)NC(C)(C)C)c1NC(=O)c1cc(Cn2nnc(C(F)(F)F)n2)nn1-c1ncccc1Cl` [Compound 31] showed a chromatographic logP [1, 5] of 4.37.
Work on `Cc1cc(C2OCCO2)cc(C(=O)NC(C)(C)C)c1NC(=O)c1cc(Cn2nnc(C(F)(F)F)n2)nn1-c1ncccc1Cl` [Compound 33] yielded a chromatographic logP ([1]; pH 2.7, LOGP (HCOOH)) of 3.22, a pest or weed control at 100 g/ha ([2]; in Brassica rapa) of 100% and a pest or weed control at 100 g/ha ([4]; in Zea mays) of 100%.
In the case of `CNC(=O)c1cc(-n2ccc(C(F)(F)F)n2)cc(C)c1NC(=O)c1cc(Cn2nnc(C(F)(F)F)n2)nn1-c1ncccc1Cl` [Compound 34], the chromatographic logP ([1]; pH 2.7, LOGP (HCOOH)) is reported as 3.48, the pest or weed control at 100 g/ha ([3]; in Brassica rapa) is reported as 100% and the pest or weed control at 100 g/ha ([4]; in Zea mays) is reported as 100%.
With `CNC(=O)c1cc(-n2ccc(C(F)(F)F)n2)cc(C)c1NC(=O)c1cc(Cn2nnc(C(F)(F)C(F)(F)F)n2)nn1-c1ncccc1Cl` [Compound 35] the chromatographic logP [1, 5] was 3.86, the pest or weed control at 100 g/ha [3, 7] was 100% and the pest or weed control at 100 g/ha [4, 8] was 100%.
Work on `CNC(=O)c1cc(-n2cncn2)cc(C)c1NC(=O)c1cc(Cn2nnc(C(F)(F)F)n2)nn1-c1ncccc1Cl` [Compound 36] yielded a chromatographic logP ([1]; pH 2.7, LOGP (HCOOH)) of 2.25, a pest or weed control at 100 g/ha ([2]; in Brassica rapa) of 100% and a pest or weed control at 100 g/ha ([3]; in Brassica rapa) of 100%. The pest or weed control at 100 g/ha ([4]; in Zea mays) was 100%.
`CNC(=O)c1cc(-n2cncn2)cc(C)c1NC(=O)c1cc(Cn2nnc(C(F)(F)C(F)(F)F)n2)nn1-c1ncccc1Cl` [Compound 37] showed a pest or weed control at 100 g/ha ([2]; in Brassica rapa) of 80%, a pest or weed control at 100 g/ha ([3]; in Brassica rapa) of 100% and a pest or weed control at 100 g/ha ([4]; in Zea mays) of 100%.
With `Cc1cc(C2OCCCO2)cc(C(=O)NC(C)(C)C)c1NC(=O)c1cc(Cn2nnc(C(F)(F)F)n2)nn1-c1ncccc1Cl` [Compound 38] the chromatographic logP ([1]; pH 2.7, LOGP (HCOOH)) was 3.37 and the pest or weed control at 100 g/ha ([4]; in Zea mays) was 100%.
`Cc1cc(C2OCC(C)(C)CO2)cc(C(=O)NC(C)(C)C)c1NC(=O)c1cc(Cn2nnc(C(F)(F)F)n2)nn1-c1ncccc1Cl` [Compound 39] gave a chromatographic logP [1, 5] of 4.07 and a pest or weed control at 100 g/ha [4, 8] of 100%.
`COC(=O)c1cc(C)c(N)c(C(=O)NC(C)(C)C)c1` [Example No. B, methyl 4-amino-3-(tert-butylcarbamoyl)-5-methylbenzoate] showed a chromatographic logP ([1]; reversed-phase C18 HPLC column, pH 2.7, Preparation Example, HPLC reversed-phase C 18, read-out: log P) of 2.48.
